The record followed here is ChEMBL document CHEMBL1201862, “PubChem BioAssay data set” (2004).

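Tested at 5 concentrations; 48 h exposure; 96-well plates; endpoints linearly interpolated, else capped at highest concentration. GI50 marks 50% less growth.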 Activity calls are given as the source filed them. No stated cut-off is given here; in the data, active = GI50 up to about 1.1 µM and inactive = higher.

Some test systems named below: U-251; A549; UO-31; SR; MOLT-4; M19-MEL; UACC-62; OVCAR-3; UACC-257; NCI-H23; KM12; RPMI-8226; CCRF-CEM; RXF 393; HCT-15; MDA-MB-435; MCF7; BT-549; DU-145; MDA-N.
Experiment in all cases: growth of human tumour cells (NCI), 48 h

On to `COc1cccc(NC(=O)CC(=O)n2nc(C)c(/N=N/c3ccccc3)c2C)c1`, for which the GI50 was > 100 µM (inactive) in the test with U-251; > 100 µM (inactive) with A549; 65.6 µM (inactive) with UO-31; 78.7 µM (inactive) in the test with SR; 69.2 µM (inactive) with MOLT-4; > 100 µM (inactive) in the test on M19-MEL. Further, the GI50 in the test on UACC-62 was 79.1 µM (inactive); in the test on OVCAR-3 it was > 100 µM (inactive); in the test on UACC-257 it was > 100 µM (inactive); in the test on NCI-H23, > 100 µM (inactive); in the test on KM12 it was > 100 µM (inactive); in the test on RPMI-8226, > 100 µM (inactive).
Consider `Cc1nc(Nc2ccccc2)sc1C(=O)NNC(N)=O`, for which the GI50 in the test on U-251 was 99.3 µM (inactive); with A549 it was > 100 µM (inactive); in the test on UO-31, > 100 µM (inactive); in the test with CCRF-CEM, > 100 µM (inactive); with MOLT-4, > 100 µM (inactive); with M19-MEL, > 100 µM (inactive). Further, the GI50 in the test on UACC-62 is > 100 µM (inactive); in the test on OVCAR-3 it was > 100 µM (inactive); with UACC-257 it was 27.4 µM (inactive); in the test with RXF 393, 29.2 µM (inactive); with NCI-H23 it was > 100 µM (inactive); with KM12, > 100 µM (inactive). For the same compound, the GI50 in the test on RPMI-8226 was > 100 µM (inactive).
As for `COC(=O)C12CC(c3ccccc31)C1C(=O)OC(=O)C12` (configuration not stated), the GI50 in the test on U-251, in the test with A549, in the test with UO-31, with CCRF-CEM, in the test with MOLT-4 and with M19-MEL was > 100 µM (inactive) throughout. Moreover, the GI50 in the test on UACC-62 is > 100 µM (inactive); in the test with OVCAR-3, > 100 µM (inactive); in the test with UACC-257, > 100 µM (inactive); with HCT-15, over 100 µM; in the test with RXF 393, > 100 µM (inactive); in the test on NCI-H23, > 100 µM (inactive). Further, the GI50 in the test with KM12 and in the test on RPMI-8226 was > 100 µM (inactive) each time.
`CC(O)/C=C/C(CCC(C)CO)C(C)C` (configuration not stated): the GI50 in the test on U-251, in the test on A549, with UO-31, in the test with CCRF-CEM, in the test on MOLT-4 and in the test on M19-MEL was > 100 µM (inactive) in each case. Also, the GI50 is > 100 µM (inactive) with UACC-62; > 100 µM (inactive) in the test on OVCAR-3; > 100 µM (inactive) in the test with UACC-257; over 100 µM in the test with HCT-15; > 100 µM (inactive) in the test on RXF 393; > 100 µM (inactive) with NCI-H23. Further, the GI50 in the test on KM12 and with RPMI-8226 was > 100 µM (inactive) throughout.
As for `Cn1c(=O)nc2n(-c3ccc(Br)cc3)c3ccccc3nc-2c1=O`, the GI50 in the test on U-251 was 5.12 µM (inactive); in the test on A549 it was 2.02 µM (inactive); in the test with UO-31 it was 10.4 µM (inactive); in the test with CCRF-CEM, 3.81 µM (inactive); in the test with MOLT-4, 6.25 µM (inactive); in the test with M19-MEL, 1.49 µM (inactive). The GI50 is 1.3 µM (inactive) with UACC-62; 2.48 µM (inactive) in the test on OVCAR-3; 2.69 µM (inactive) in the test on UACC-257; 3.55 µM with HCT-15; 12.3 µM (inactive) in the test on RXF 393; 0.783 µM (active) with NCI-H23. Also, the GI50 was 8.83 µM (inactive) with KM12 and 3.16 µM (inactive) in the test on RPMI-8226.
Turning to `Cc1cc(S(=O)(=O)Nc2nc3ccccc3nc2-c2cccc([N+](=O)[O-])c2)c(S)cc1Cl`, the GI50 is 16.9 µM (inactive) with U-251; 19.8 µM (inactive) with MDA-MB-435; 24 µM (inactive) with MCF7; 16.1 µM (inactive) in the test on A549; 22.5 µM (inactive) in the test on UO-31; 23.5 µM (inactive) in the test with CCRF-CEM. Further, the GI50 is 20.8 µM (inactive) in the test with SR; 38.7 µM (inactive) in the test on BT-549; 22.6 µM (inactive) in the test on MOLT-4; 12.3 µM (inactive) in the test with UACC-62; 15.9 µM (inactive) in the test on OVCAR-3; 18.1 µM (inactive) in the test on UACC-257. The GI50 is 18.5 µM (inactive) in the test on DU-145; 43 µM in the test with HCT-15; 33.7 µM (inactive) with RXF 393; 17.1 µM (inactive) in the test on NCI-H23; 20.5 µM (inactive) in the test on MDA-N; 15.6 µM (inactive) with KM12. In the test with RPMI-8226, the GI50 is 19.2 µM (inactive).
Regarding `CC1=C(Br)C(=O)c2c(O)ccc(O)c2C1=O`, the GI50 in the test on U-251 is 1.5 µM (inactive); with MDA-MB-435, 0.204 µM (active); in the test on MCF7, 0.182 µM (active); with A549, 1.89 µM (inactive); in the test on UO-31, 0.625 µM (active); with CCRF-CEM, 0.0183 µM (active). The GI50 with SR is 0.207 µM (active); in the test on BT-549 it was 0.71 µM (active); in the test with MOLT-4, 0.0258 µM (active); in the test with UACC-62, 0.71 µM (active); with OVCAR-3, 0.74 µM (active); in the test on UACC-257, 1.13 µM (inactive). Moreover, the GI50 in the test on DU-145 was 1.52 µM (inactive); in the test with HCT-15, 0.342 µM; in the test with RXF 393, 1.42 µM (inactive); in the test with NCI-H23 it was 0.938 µM (active); with MDA-N, 0.251 µM (active); in the test on KM12, 1.57 µM (inactive). In the test with RPMI-8226, the GI50 is 0.278 µM (active).
Take `C=C(C(=C)P(=S)(c1ccccc1)c1ccccc1)P(=S)(c1ccccc1)c1ccccc1`: the GI50 in the test with U-251, with A549, with CCRF-CEM, in the test with MOLT-4, in the test on M19-MEL and in the test with UACC-62 was > 100 µM (inactive) each time. The GI50 in the test on OVCAR-3 is > 100 µM (inactive); with UACC-257 it was > 100 µM (inactive); in the test with HCT-15, over 100 µM; in the test with RXF 393, > 100 µM (inactive); with NCI-H23, > 100 µM (inactive); with KM12 it was > 100 µM (inactive). Further, in the test on RPMI-8226, the GI50 was 8.75 µM (inactive).
On to `CC(Cc1ccc(Cl)cc1Cl)NO` (configuration not stated), for which the GI50 with U-251, with MDA-MB-435, with MCF7, in the test on A549, in the test on UO-31 and in the test with CCRF-CEM was > 100 µM (inactive) throughout. Besides, the GI50 in the test on SR is > 100 µM (inactive); with BT-549, > 100 µM (inactive); with MOLT-4, 83.6 µM (inactive); in the test with UACC-62 it was > 100 µM (inactive); in the test on OVCAR-3 it was > 100 µM (inactive); in the test with UACC-257, > 100 µM (inactive). For the same compound, the GI50 in the test with DU-145 was > 100 µM (inactive); with HCT-15, over 100 µM; with RXF 393, > 100 µM (inactive); with NCI-H23, > 100 µM (inactive); in the test with MDA-N, > 100 µM (inactive); with KM12, > 100 µM (inactive). Moreover, in the test with RPMI-8226, the GI50 was 78 µM (inactive).
With `COc1ccc2c(c1)c1c(n2CCN2CCOCC2)-c2ccccc2CC1`, the GI50 in the test on U-251 was 29.9 µM (inactive); in the test with MDA-MB-435, 34 µM (inactive); with MCF7 it was 30.8 µM (inactive); in the test on A549, 30.8 µM (inactive); in the test on UO-31, > 100 µM (inactive); in the test with CCRF-CEM, 27.2 µM (inactive). The GI50 in the test on SR is 18.2 µM (inactive); in the test with BT-549 it was > 100 µM (inactive); in the test on MOLT-4 it was 17.1 µM (inactive); with UACC-62, > 100 µM (inactive); in the test with OVCAR-3, 44.8 µM (inactive); in the test with UACC-257, 47.1 µM (inactive). Moreover, the GI50 with DU-145 was 35.7 µM (inactive); in the test on HCT-15, 29.9 µM; in the test with RXF 393, 34 µM (inactive); in the test on NCI-H23, > 100 µM (inactive); in the test with MDA-N, 32.2 µM (inactive); with KM12 it was 32.8 µM (inactive). For the same compound, the GI50 with RPMI-8226 is 22.5 µM (inactive).
As to `COc1cc(CC(C)NC(C)=O)cc(OC)c1` (configuration not stated), the GI50 with U-251, with MDA-MB-435, in the test with MCF7, with A549, in the test with UO-31 and in the test on CCRF-CEM was > 100 µM (inactive) each time. For the same compound, the GI50 was 3.04 µM (inactive) in the test with SR; > 100 µM (inactive) in the test with BT-549; > 100 µM (inactive) in the test with MOLT-4; > 100 µM (inactive) in the test with UACC-62; > 100 µM (inactive) in the test on OVCAR-3; > 100 µM (inactive) in the test with UACC-257. Besides, the GI50 in the test with DU-145 is > 100 µM (inactive); with HCT-15, over 100 µM; in the test with RXF 393, > 100 µM (inactive); in the test with NCI-H23, > 100 µM (inactive); with MDA-N, > 100 µM (inactive); in the test on KM12 it was > 100 µM (inactive). Also, in the test with RPMI-8226, the GI50 is > 100 µM (inactive).
Turning to `O=c1oc2ccc(Cl)cc2cc1-c1cn2cc(Cl)ccc2n1`, the GI50 in the test with U-251 was > 49.3 µM (inactive); with MDA-MB-435, 0.24 µM (active); in the test on MCF7, 1.64 µM (inactive); in the test with A549 it was 14.1 µM (inactive); with UO-31 it was > 44 µM (inactive); with CCRF-CEM, > 28.8 µM (inactive). Further, the GI50 with SR is 0.473 µM (active); in the test with BT-549, 15.1 µM (inactive); in the test on MOLT-4 it was 6.46 µM (inactive); in the test with UACC-62, 0.574 µM (active); in the test with OVCAR-3, 5.3 µM (inactive); with UACC-257, > 100 µM (inactive). For the same compound, the GI50 was > 100 µM (inactive) with DU-145; 2.36 µM in the test on HCT-15; > 100 µM (inactive) in the test with RXF 393; > 100 µM (inactive) with NCI-H23; 0.368 µM (active) in the test on MDA-N; 2.54 µM (inactive) in the test on KM12. In addition, in the test on RPMI-8226, the GI50 was > 100 µM (inactive).
In the case of `CCCCc1c2c(nc3c1CCCC3=O)CCCC2`, the GI50 is > 100 µM (inactive) with U-251; > 100 µM (inactive) in the test on A549; > 100 µM (inactive) in the test on UO-31; > 100 µM (inactive) in the test on CCRF-CEM; 41.4 µM (inactive) with SR; > 100 µM (inactive) in the test with MOLT-4. The GI50 in the test with M19-MEL was > 100 µM (inactive); with OVCAR-3, > 100 µM (inactive); in the test on UACC-257, > 10 µM (inactive); with HCT-15 it was over 100 µM; in the test with NCI-H23, > 100 µM (inactive); in the test with KM12, > 100 µM (inactive). Further, the GI50 in the test on RPMI-8226 was > 100 µM (inactive).
